Source: ChEMBL document CHEMBL4304747, “Structural Tailoring of a Novel Fluorescent IRE-1 RNase Inhibitor to Precisely Control Its Activity” (J Med Chem, 2019)
One block for each compound: values may come before it. The source made the active and inactive calls. The calls are words filed in the database; no cut-off is given here.

How the values were obtained:
[1] = system: 5TGM1; test: Cytotoxicity against mouse 5TGM1 cells assessed as growth inhibition at 20 uM measured after 3 days by XTT assay; type: functional, cell-based
[2] = Drug metabolism in pH 7.4 PBS/DMSO assessed as 1,3-dioxane acetal hydrolysis measured after 48 hrs by HPLC analysis
[3] = Stability in PBS/DMSO assessed as change in fluorescence intensity at 10 uM at 460 nm; type: physicochemical; details: buffer
[4] = biological target: Serine/threonine-protein kinase/endoribonuclease IRE1 (Mus musculus) (UniProt Q9EQY0); test: (§1) Binding affinity to IRE1 in mouse 5TGM1 cells assessed as inhibition of IRE1/XBP1 pathway activation by measuring reduction in XBP1s expression at 10 uM measured after 3 days by immunoblot analysis; type: cell-based
[5] = biological target: Serine/threonine-protein kinase/endoribonuclease IRE1 (Mus musculus) (UniProt Q9EQY0); test: as §1, with “uM preincubated for 4 hrs followed by three times compound washout and subsequent 1 mW/cm2 UV irradiation for 10 mins” for “uM”, “8 hrs” for “3 days”; type: cell-based
[6] = Drug metabolism in RPMI media assessed as 1,3-dioxane acetal hydrolysis measured after 96 hrs by HPLC analysis
[7] = organism: Homo sapiens; test: Cytotoxicity against human WaC3 cells assessed as growth inhibition at 20 uM measured after 3 days by XTT assay; type: functional, cell-based
[8] = biological target: Serine/threonine-protein kinase/endoribonuclease IRE1 (Mus musculus) (UniProt Q9EQY0); test: Binding affinity to IRE1 in mouse 5TGM1 cells assessed as inhibition of IRE1/XBP1 pathway activation by measuring reduction in XBP1s expression at 10 uM measured up to 24 hrs by immunoblot analysis; type: cell-based
[9] = biological target: Serine/threonine-protein kinase/endoribonuclease IRE1 (Mus musculus) (UniProt Q9EQY0); test: Binding affinity to IRE1 in mouse 5TGM1 cells assessed as inhibition of IRE1/XBP1 pathway activation by measuring reduction in XBP1s expression at 10 uM measured after 2 days by immunoblot analysis; type: cell-based
[10] = Stability in PBS/DMSO assessed as increase in fluorescence intensity at 10 uM; type: physicochemical; details: buffer
[11] = system: 5TGM1; test: Cytotoxicity against mouse 5TGM1 cells assessed as growth inhibition at 20 uM measured after 4 days by XTT assay; type: functional, cell-based
[12] = Stability in PBS/DMSO assessed as increase in fluorescence intensity at 10 uM at 365 nm light illumination by fluorescence imaging analysis
[13] = Stability in PBS/DMSO assessed as compound decomposition by measuring decrease in fluorescence intensity at 10 uM measured after 48 hrs; type: physicochemical; details: read-out: Drug degradation
[14] = biological target: Serine/threonine-protein kinase/endoribonuclease IRE1 (Mus musculus) (UniProt Q9EQY0); test: Binding affinity to IRE1 in mouse 5TGM1 cells assessed as inhibition of IRE1/XBP1 pathway activation by measuring reduction in XBP1s expression at 5 uM measured after 24 hrs by immunoblot analysis; type: cell-based
[15] = biological target: Serine/threonine-protein kinase/endoribonuclease IRE1 (Mus musculus) (UniProt Q9EQY0); test: Binding affinity to IRE1 in mouse 5TGM1 cells assessed as inhibition of IRE1/XBP1 pathway activation by measuring reduction in XBP1s expression at 2.5 uM measured up to 4 hrs by immunoblot analysis; type: cell-based
[16] = Drug metabolism in RPMI media assessed as hydrolysis at measured up to 25 hrs by HPLC analysis
[17] = Stability in PBS/DMSO assessed as change in fluorescence intensity at 10 uM; type: physicochemical; details: buffer
[18] = organism: Homo sapiens; test: Cytotoxicity against human WaC3 cells assessed as growth inhibition at 20 uM measured after 1 day by XTT assay; type: functional, cell-based
[19] = biological target: Serine/threonine-protein kinase/endoribonuclease IRE1 (Mus musculus) (UniProt Q9EQY0); test: Binding affinity to IRE1 in LPS-stimulated mouse primary B cells assessed as inhibition of IRE1/XBP1 pathway activation by measuring reduction in XBP1s expression at 2.5 to 5 uM measured after 2 hrs by immunoblot analysis
[20] = Prodrug conversion in DMSO/PBS solution assessed as DF07 formation by measuring increase in fluorescence intensity at 10 uM irradiated with 1 mW/cm2 UV light relative to control; type: ADME
[21] = Stability in pH 7.4 PBS/DMSO measured after 48 hrs by HPLC analysis; type: physicochemical; details: buffer, pH 7.4, 48 h
[22] = Prodrug conversion in cytoplasm of mouse 5TGM1 cells assessed as DF07 formation by measuring increase in fluorescence intensity at 10 uM treated for 4 hrs measured 10 secs post irradiation with 50 mW DAPI filtered diode laser by confocal microscopic analysis; type: ADME, subcellular; details: 5tgm1, 4 h
[23] = Stability in RPMI media measured after 96 hrs by HPLC analysis; type: physicochemical
[24] = biological target: Serine/threonine-protein kinase/endoribonuclease IRE1 (Mus musculus) (UniProt Q9EQY0); test: Binding affinity to IRE1 in mouse 5TGM1 cells assessed as inhibition of IRE1/XBP1 pathway activation by measuring reduction in XBP1s expression at 10 uM irradiated with 1 mW/cm2 UV light for up to 10 mins and measured after 4 hrs by immunoblot analysis; type: cell-based
[25] = biological target: Serine/threonine-protein kinase/endoribonuclease IRE1 (Mus musculus) (UniProt Q9EQY0); test: Binding affinity to IRE1 in mouse 5TGM1 cells assessed as inhibition of IRE1/XBP1 pathway activation by measuring reduction in XBP1s expression at 10 uM measured after 4 hrs by immunoblot analysis; type: cell-based

Sequence of Serine/threonine-protein kinase/endoribonuclease IRE1 (Mus musculus) (Q9EQY0 whole entry): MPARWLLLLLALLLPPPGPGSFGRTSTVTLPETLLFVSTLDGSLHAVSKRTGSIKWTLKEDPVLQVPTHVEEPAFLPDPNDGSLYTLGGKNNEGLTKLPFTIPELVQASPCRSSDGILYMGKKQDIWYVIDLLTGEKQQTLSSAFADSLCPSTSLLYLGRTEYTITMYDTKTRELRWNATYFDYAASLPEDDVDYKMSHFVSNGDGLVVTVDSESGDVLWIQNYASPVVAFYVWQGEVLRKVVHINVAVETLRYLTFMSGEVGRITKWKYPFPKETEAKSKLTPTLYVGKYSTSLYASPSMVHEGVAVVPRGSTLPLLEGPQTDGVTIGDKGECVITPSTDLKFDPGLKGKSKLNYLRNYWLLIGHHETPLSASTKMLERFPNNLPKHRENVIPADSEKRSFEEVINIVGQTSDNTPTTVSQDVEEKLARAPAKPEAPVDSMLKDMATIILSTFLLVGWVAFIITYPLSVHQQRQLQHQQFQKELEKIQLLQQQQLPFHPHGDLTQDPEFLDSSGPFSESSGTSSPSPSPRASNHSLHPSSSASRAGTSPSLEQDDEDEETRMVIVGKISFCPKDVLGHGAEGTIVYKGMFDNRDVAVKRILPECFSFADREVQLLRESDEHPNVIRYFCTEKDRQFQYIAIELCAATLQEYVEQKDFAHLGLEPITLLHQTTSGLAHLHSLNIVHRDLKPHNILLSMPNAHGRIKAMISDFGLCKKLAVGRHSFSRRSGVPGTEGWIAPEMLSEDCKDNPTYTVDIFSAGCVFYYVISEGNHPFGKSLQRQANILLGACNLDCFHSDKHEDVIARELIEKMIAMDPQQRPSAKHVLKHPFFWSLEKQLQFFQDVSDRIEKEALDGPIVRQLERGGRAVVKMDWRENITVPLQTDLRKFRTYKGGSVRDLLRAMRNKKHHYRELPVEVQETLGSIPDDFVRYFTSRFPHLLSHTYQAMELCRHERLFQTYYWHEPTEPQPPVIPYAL

Structure (SMILES): C=CCOC(=O)N1CCc2c(c(=O)oc3c(C=O)c(O)ccc23)C1
inhibition [8]: Active

Structure (SMILES): O=c1oc2c(/C=N/N3CCCCC3)c(O)ccc2c2c1CNCC2
Stability [10]: Unstable

Structure (SMILES): COc1cc2c3c(c(=O)oc2c(/C=N/NC(C)=O)c1O)CN(C)CC3
inhibition [15]: Active | Stability [17]: Unstable | inhibition [4]: Active | growth inhibition (GI) [7]: inactive | growth inhibition (GI) [18]: Active

Structure (SMILES): CC(=O)N/N=C/c1c(O)ccc2c3c(c(=O)oc12)CN(C)CC3
inhibition [15]: Active | Stability [10]: Unstable | Drug metabolism [16]: Metabolite detected | inhibition [4]: Active | growth inhibition (GI) [7]: Active | inhibition [19]: Active

Structure (SMILES): COc1cc2c3c(c(=O)oc2c(C2OCCCO2)c1OC(C)c1ccc(C(=O)OCC[Si](C)(C)C)cc1[N+](=O)[O-])CN(C)CC3 (stereo not given)
fold change (FC) [20]: 75 | Stability [21]: Stable | Drug metabolism [22]: Metabolite_Detected | Stability [23]: Stable | inhibition [5]: Active | inhibition [24]: Active | inhibition [25]: inactive

Structure (SMILES): O=Cc1c(O)ccc2c3c(c(=O)oc12)CNCC3
inhibition [9]: inactive | Stability [10]: Stable | inhibition [8]: Active | growth inhibition (GI) [11]: Active | Stability [12]: Stable

Second part, led by results:

Stability [3]: Stable | inhibition [4]: Active | inhibition [5]: inactive
Structure (SMILES): COc1cc2c3c(c(=O)oc2c(C2OCCCO2)c1O)CN(C)CC3
growth inhibition (GI) [1]: Active | Drug metabolism [2]: 70% | Drug metabolism [6]: 70% | growth inhibition (GI) [7]: Active

inhibition [9]: inactive | Stability [10]: Stable | inhibition [8]: Active
Structure (SMILES): CN1CCc2c(c(=O)oc3c(C=O)c(O)ccc23)C1
growth inhibition (GI) [1]: Active | growth inhibition (GI) [11]: Active | Stability [12]: Stable

degraded at 48 h, 10 µM [13]: 5.1% | inhibition [4]: Active | inhibition [14]: Active
Structure (SMILES): O=c1oc2c(C3OCCCO3)c(O)ccc2c2c1CNCC2
growth inhibition (GI) [11]: Active

Stability [10]: Stable | degraded at 48 h, 10 µM [13]: 60% | inhibition [14]: Active
Structure (SMILES): CC1(C)COC(c2c(O)ccc3c4c(c(=O)oc23)CNCC4)OC1

inhibition [15]: Active | Stability [10]: Stable | inhibition [4]: Active
Structure (SMILES): CN1CCc2c(c(=O)oc3c(C4OCCCO4)c(O)ccc23)C1
growth inhibition (GI) [1]: Active | Drug metabolism [16]: Metabolite detected | growth inhibition (GI) [11]: Active | growth inhibition (GI) [7]: Active

Stability [3]: Stable | inhibition [4]: Active
Structure (SMILES): COc1cc2c3c(c(=O)oc2c(C2OCCCO2)c1O)CNCC3

Stability [10]: Unstable
Structure (SMILES): CN1CCc2c(c(=O)oc3c(/C=N/N4CCCCC4)c(O)ccc23)C1
